“Also recorded” adds a separate entry of the source. No end group written: not given here.

Results on 26 substances are retold here after US20040142379A1, “Affinity fishing for ligands and proteins receptors” (Carlsberg Research Laboratory, priority 2003, published 2004).

The first assay deals with six protein mixture: Con A, P. sativum lectin, L. culinaris lectin, W. floribunda lectin, Glyceraldehyde 6-phosphate, and bovine serum albumin (BSA).
Test: not given
Particulars: proteins eluted from ligand on PEGA6000 resin with 0.5 M mannose and/or N-acetylglucosamine. On the procedure:
The ligand-resin was washed with 10 mM PBS buffer, pH 6.8 containing 1 mM CaCl2 and 1 mM MnCl2. A mixture of unlabelled proteins, Glycerol-3-phosphate: BSA: Wisteria floribunda: Lens culinaris: Pisatum sativum in a […] weight ratio was dissolved in 10 mM PBS buffer, pH 6.8 containing 1 mM CaCl2 and 1 mM MnCl2 The protein mix (3.5 mL, ca. 1.2 mg protein) was applied to each ligand column and allowed to bind overnight. The column was washed with the same buffer until no more protein was eluted (Abs 280 nm). Bound protein was eluted from the column using 0.5M mannose in 10 mM PBS buffer, pH 8.0 containing CaCl2 and 1 mM MnCl2 (buffer filtered to remove CaOH2 formed) for glycopeptides containing only mannose, 0.5 M N-acetylglucosamine in 10 […] mM PBS buffer, pH 8.0 containing CaCl2 and 1 mM MnCl2 (buffer filtered to remove CaOH2 formed) for glycopeptides containing only GlcNAc, and both buffers for glycopeptides containing both mannose and GlcNAc, or for unglycosylated peptides. Samples were obtained in about 700 μL volume and frozen for later protein identification.
For the substance ManN-Phe-Trp-Ser-Lys-His, the “Identified Protein(s)” value is reported as “Con A, P. sativum lectin”.

With GlcNN-Trp-Phe-Asp-Trp-Pro, the “Identified Protein(s)” value is given as “Con A”.

Turning to ManN-ManS-ManN-Trp-Ser-Trp, the “Identified Protein(s)” value is “Con A, P. sativum lectin,; also recorded: L. culinaris lectin”.

For the substance ManS-GIy-GlcNN-Asn-ManS-Tyr, the “Identified Protein(s)” value is recorded as “Con A, P. sativum lectin,; also recorded: L. culinaris lectin”.

As to ManS-Gly-ManS-Asp-Asn-Ala, the “Identified Protein(s)” value is recorded as “Con A, P. sativum lectin”.

GPKKYH: the “Identified Protein(s)” value is given as “Con A, P. sativum lectin,; also recorded: L. culinaris lectin”.

GlcNN-Val-GlcNN-His-ManS-Gly: the “Identified Protein(s)” value is reported as “Con A, P. sativum lectin”.

A further assay concerns E. coli membrane proteins. The experiment in a line: Solid phase screening of Library 2 with E. coli membrane proteins; on-bead tryptic digest and protein identification. The assay is classed as binding, Escherichia coli DH 5α-136. Particulars: proteins bound to resin-bound Library 2 ligand; LA low abundance, M inner or outer membrane, P periplasmic space. How it is done:
A 400 mL culture of Escherichia coli DH 5α-136 (Carlsberg Research Center Collection) was prepared according to the procedures described in Hanahan, 1985, In: DNA Cloning, Vol 1, Glover, D., ed., IRL Press Ltd, pp. 109-135. Cells were grown from innocula in LB media at 37° C. for 5 to 6 hours and harvested in the latter log phase at an optical density of 0.8 (600 nm) by centrifugation (10,000 rpm for 10 minutes at 4° C.). The media containing extracellular protein was retained and the pellet washed once with PBS, pH 7.6 (cellular weight=2.22 g).
Isolation of E. coli membrane proteins was achieved through modification of published literature procedures: Auer, et al., 2001, Biochemistry, 40:6628-6635, and Molloy, et al., 2000, Eur. J. Biochem. 267:2871-2881. After incubation of E. coli cells for 2 days, washed cells were scraped from plates and centrifuged as described above for Example 10. The cell pellet (approximately 1 g) was suspended in 50 mM Tris HCl, pH 7.5 and pressed (2×) in a French Press at 1500 Psi. The resulting suspension was centrifuged at 2500×g for 10 minutes. The ice cold supernatant was diluted with 2.5 ml of ice-cold 0.1 M sodium carbonate buffer 11 and the solution stirred on ice for 1 hour. Ultracentrifugation was then carried out at 115, 000×g for 1 to 1.5 hours at 4° C., yielding Pellet 1 and Supernatant 1. The membrane pellet 1 was resuspended in 50 mM Tris HCl, pH 7.5 and the pellet was recollected after centrifugation for an additional 20 minutes at 115,000×g, yielding Pellet 2 and supernatant 2. Pellet 2 was solubilized in 50 mM Tris HCl, pH 7.5 containing 10 mM imidazole, 0.5 mM PMSF, 20% glycerol, and 1% Dodecyl Maltoside (DDM) or 33 mM Octyl Glucoside (OG) for 30 minutes at 4° C. The suspension was then centrifuged for 10,000 g for 30 minutes. The pellet and supernatant obtained were labeled Pellet 3 and supernatant 3.
Protein content was determined by checking the absorbance of the protein at 280 nm. The protein concentration in the DDM sample was 0.93 mg/mL, while in the OG sample 0.07 mg/mL protein was obtained.
The protein was labeled with amino reactive succinylanthranilate dye (blue) DDM (0.49 mg dye) and OG (0.03 mg dye) according to the same protocol used in the extracellular labeling described above for Example 12. The labeling stopping reaction (hydroxylamine hydrochloride addition) was not used in this case, to avoid dilution of the protein. The mixture was dialyzed overnight against 10 mM PBS buffer, pH 6.8 containing 0.01 mM ZnCl2, 0.01 mM CaCl2, 0.01 mM MnCl2, and 0.01 mM MnSO4, against a three time buffer change.
The ligand library was then washed, and E. coli labeled membrane protein, prepared as described above for Example 13, was added (0.1 ml). The ligand library and protein mixture was incubated overnight at room temperature.
A typical analysis employed 100-300 laser shots.
Beads containing 40 different specific ligands that bind E. coli protein, the binding ligands isolated by the process described for Example 16 and identified as described for Example 19, were placed into 40 wells of a Multiwell filter plate (Multiscreen DV plates, Millipore). Control beads containing PEGA4000 resin plus the spacer and linker with no ligand compound were used. The binding of unlabeled E. coli proteins was carried out in duplicate. The ligand beads were washed with Millipore water for 3×5 minutes and then with 10 mM PBS buffer (as described for Example 15) for 3×5 minutes under vacuum. Unlabeled E. coli protein, produced as described for Example 13, (400 μg) was added to each well and incubated at room temperature overnight. The next day, the unbound protein solution from each well was removed under suction and the beads were washed with Millipore water and buffer respectively for 3×5 minutes under vacuum.
Protein was cleared from beads containing protein-ligand binding “positive hits” isolated as described for Examples 21 (myocyte proteins) and 22 (E. coli proteins). […]
As to T(Sa)-F-G-I-M, the “Identified Protein(s)” value is on record as “Transposase, transcriptional regulator (LA), GroEL, protein involved in the taurine; also recorded: transport system (M)”.

Turning to T(Sa)-W-V-N-M, the “Identified Protein(s)” value is recorded as “Transposase, inner membrane protein for phage attachment (M)”.

In the case of T(Sa)-L-Y-I-F, the “Identified Protein(s)” value is “Colicin, hypothetical membrane protein (M) outer membrane lipoprotein (M),; also recorded: arylsulfatase”.

For T(Sa)-H-W-V-V, the “Identified Protein(s)” value is recorded as “Pyruvoyl dependent aspartate decarboxylase, colicin E2, Histidine kinase (M)”.

For T(Sa)-H-I-G-Y, the “Identified Protein(s)” value is reported as “Fimbrial subunit, outer membrane pyruvate kinase (LA, M)”.

Consider T(Sa)-F-G-I-W, for which the “Identified Protein(s)” value is listed as “Histidine synthetase, aspartate carbamoyl transferase, protein involved in permease; also recorded: transport system (M)”.

On to T(Sa)-F-V-W-H, for which the “Identified Protein(s)” value is “NADH dehydrogenase (M), protein involved in flagellar biosynthesis and motor; also recorded: switching component (M); also recorded: Lysine-arginine-ornithine-binding protein (P), ATP-binding component of glycine-; also recorded: betaine-proline transport protein (P)”.

Take T(Sa)-L-Y-L-F: the “Identified Protein(s)” value was “Fimbrial protein precursor, alkaline phosphatase (P), cytochrome related proteins (P),”.

With T(Sa)-F-G-L-M, the “Identified Protein(s)” value is on record as “Hemolysin C, high affinity potassium transport system (M), quinone oxidoreductase; also recorded: (M), ferrodoxin dependent NA(D)PH oxidoreductase (M)”.

With T(Sa)-G-V-F-L, the “Identified Protein(s)” value was 50 S ribosomal protein, heme binding lipoprotein (M), regulator for D-glucarate, D- and glycerate and D-galactarate, glutamine tRNA synthetase.

Turning to T(Sa)-I-Y-L-F, the “Identified Protein(s)” value is listed as “Membrane bound ATP synthetase (M), ATP hydrolase”.

For the substance T(Sa)-H-L-G-Y, the “Identified Protein(s)” value is “Protein involved in lipopolysaccharide biosynthesis (M), phosphomannose isomerase”.

For T(Sa)-H-W-H-L, the “Identified Protein(s)” value was “Chorismate mutase, xanthine dehydrogenase, carbamoyl phosphate synthetase”.

For T(Sa)-F-A-L-V, the “Identified Protein(s)” value is reported as “Chaperone DnaK, putative hydrolase, transposase”.

Consider T(Sa)-F-N-H-S, for which the “Identified Protein(s)” value is recorded as “Phosphate acetyl transferase, acid shock protein, molybdopterin converting factor; also recorded: subunit”.

In the case of T(Sa)-Y-S-M-P, the “Identified Protein(s)” value is listed as “Biotin synthetase, UDP-glucose dehydrogenase, tyrosine protein kinase (LA), fatty; also recorded: acid oxidase complex proteins”.

For T(Sa)-L-S-W-W, the “Identified Protein(s)” value was “NAD-dependent 7-alpha-hydroxysteriod dehydrogenase, homocysteine transferase,; also recorded: nitrate reductase (P), lactate dehydrogenase, citrate synthetase”.

Turning to T(Sa)-H-W-H-I, the “Identified Protein(s)” value was “Mannose-1-phosphate guanyl transferase, isopropyl malate dehydrogenase (M)”.

Consider T(Sa)-M-V-N-W, for which the “Identified Protein(s)” value is “ATP dependent helicase, mob C”.
